From publication PMC11845477, “Exploring the principles behind antibiotics with limited resistance” (Nature Communications, 2025) come the findings set out here.

Where two headings read alike, the source gives them in different places. Where a SMILES comes first, the peptide text is derived from it. Bridges are numbered along the chain shown (N, C = ends). [ ]: non-standard residue; d: D form. The star is where a group is joined. X2 = CC[C@H](C)CCCCC(=O)*; Dab = NCC[C@H](N)C(=O)O

For assay [1], the system named is A. baumannii ATCC 17978 (SEN) and A. baumannii ATCC BAA-1605 (MDR). Briefly: Frequency-of-resistance (FoR) assay, relative MIC of mutants. Format: cell-based, Acinetobacter baumannii. To be noted: Acinetobacter baumannii, read-out: MIC of evolved line, Acinetobacter baumannii ATCC 17978 (AB-SEN). As for the experimental part: The susceptibility of antibiotics to resistance development was evaluated in two strains of each bacterial species: a multidrug-resistant strain and an antibiotic-sensitive strain of Escherichia coli, Klebsiella pneumoniae, Acinetobacter baumannii, and Pseudomonas aeruginosa. To explore first-step resistance, we previously used a standard protocol for spontaneous frequency-of-resistance analysis (FoR assay) at multiple concentrations of each antibiotic[10],[28],[31]–[33]. […] For all other combinations, approximately 10^10 bacterial cells were exposed to one of each antibiotic on agar plates for two days at concentrations where the given strain is susceptible. We examined resistance levels by contrasting the minimum inhibitory concentration (MICs) of the mutated strains to the original wild-type bacterial strain (i.e., relative MIC).
To estimate the frequency of spontaneous mutations that confer resistance in a microbial population, we conducted a frequency of resistance (FoR) assay following established protocols[10],[31]–[33]. […] Prior to plating, bacteria were grown overnight in MHB medium at 37 °C and 250 RPM, then centrifuged and washed in MHB. All experiments were performed in triplicate, and plates were incubated at 37 °C for 48 hours. Total colony-forming units (CFUs) were determined by plating appropriate dilutions onto antibiotic-free MHB agar. Resistance frequencies were calculated by dividing the number of resistant colonies by the initial viable cell count. From the plates with the highest antibiotic concentration, ten colonies were selected for MIC determination and whole-genome sequencing.
(§1) A robotic liquid handling system was used to automatically prepare a 11 to 16-step serial dilution in 384-well microtiter plates (Greiner). A final concentration of 5 × 10^5 bacterial cells per mL were inoculated into each well containing 60 µL MHB medium. Bacterial cultures were incubated at 37 °C with continuous shaking (Infors shaker, 900 rpm with 3 mm throw) for 18 hours (2 replicates from each). Cell growth was monitored by measuring the optical density (OD600 values, using Biotek Synergy microplate reader). MIC was defined as the antibiotic concentration of complete growth inhibition (i.e., OD600 < 0.05). Relative MIC was calculated as follows:1 relativeMIC=MICevolved/MICancestor […]
Supplementary Figure 3. Resistance levels following the frequency of resistance assay across bacterial strains. The level of resistance was measured as the fold change in relative MIC between evolved and ancestral strains. Data are grouped by bacterial strain (A. baumannii (AB), E. coli (EC), K. pneumoniae (KP), and P. aeruginosa (PA)) and categorized as either multidrug-resistant (MDR) or sensitive (SEN). Each data point represents a laboratory evolved line, and boxplots show the median, first and third quartiles, with whiskers indicating the 5th and 95th percentiles. […]
analysis was performed using two-sided Dunn’s post-hoc test with Benjamini-Hochberg correction for multiple comparisons (**/ * indicates p < 0.01/ 0.05). For detailed information on antibiotic and bacterial species, see Supplementary Table 1. For mode of action groups, refer to Table 1. Source data are provided as a Source Data file.

In assay [2] the test system is K. pneumoniae ATCC 10031 (SEN) and K. pneumoniae ATCC 700603 (MDR). The assay can be described thus: Adaptive laboratory evolution (ALE), relative MIC of evolved lines. In kind it is cell-based, Klebsiella pneumoniae. To be noted: for MIC of evolved line: KP-SEN (K. pneumoniae ATCC 10031).
Text: Using the same set of bacterial strains, we initiated adaptive laboratory evolution with the aim to maximize the level of antibiotic resistance in the populations achieved during a longer, but fixed time period.
An established protocol for adaptive laboratory evolution[46],[73] was followed to propagate populations with the highest resistance levels. Starting with an antibiotic concentration that caused approximately 50% growth inhibition, ten parallel populations for each antibiotic-ancestor strain combination were grown for 72 hours at 37 °C with continuous shaking (300 RPM). MHB broth medium was used unless stated otherwise. After each incubation, 20 µl of each culture was transferred to four new wells containing fresh medium with increasing antibiotic concentrations (0.5×, 1×, 1.5×, and 2.5× the previous concentration) in a chessboard layout to monitor potential cross-contamination. Growth was monitored by measuring OD600 using a Biotek Synergy 2 microplate reader, and only populations grown in the highest drug concentration with an OD600 > 0.2 were transferred further.
as §1
Supplementary Figure 4. Resistance levels following adaptive laboratory evolution across bacterial strains. The level of resistance was measured as the fold change in relative MIC between evolved and ancestral strains after ~60 days of adaptive laboratory evolution. Data are grouped by bacterial strain (A. baumannii (AB), E. coli (EC), K. pneumoniae (KP), and P. aeruginosa (PA)) and categorized as either multidrug-resistant (MDR) or sensitive (SEN). Each data point represents a laboratory evolved line, and boxplots show the median, first and third quartiles, with whiskers indicating the 5th and 95th percentiles.
Statistical analysis was performed using two-sided Dunn’s post-hoc test with Benjamini-Hochberg correction for multiple comparisons (****/ ***/ **/ * indicates p < 0.0001/ 0.001/ 0.01/ 0.05). For detailed information on antibiotic and bacterial species, see Supplementary Table 1. For mode of action groups, refer to Table 1. Source data are provided as a Source Data file.

[3] abbreviates: KP-SEN (Klebsiella pneumoniae ATCC 10031), evolved line 2.

Broadly, the MIC is the smallest concentration in the dilution series that meets the test's criterion for growth inhibition.

Regarding `COc1c(N2C[C@@H]3CCCN[C@@H]3C2)c(F)cc2c(=O)c(C(=O)O)cn(C3CC3)c12` [Moxifloxacin], the results for the MIC in assay [1] (evolved line 1), in assay [1] (evolved line 2) and in assay [1] (evolved line 3) were 0.5 µg/mL, 2 µg/mL and 1 µg/mL, respectively.

Consider `CC[C@H](C)CCCCC(=O)N[C@@H](CCN)C(=O)N[C@H](C(=O)N[C@@H](CCN)C(=O)N[C@H]1CCNC(=O)[C@H]([C@@H](C)O)NC(=O)[C@H](CCN)NC(=O)[C@H](CCN)NC(=O)[C@H](CC(C)C)NC(=O)[C@@H](Cc2ccccc2)NC(=O)[C@H](CCN)NC1=O)[C@@H](C)O` [Polymyxin B] (X2-[Dab]T[Dab][Dab][Dab][dF]L[Dab][Dab]T; lactam 4-C (inferred); N-terminus assumed), for which the “Relative MIC (log10)” value in assay [2] (KP-MDR (Klebsiella pneumoniae ATCC 700603), evolved line 3) came out at 2.408 log10; in assay [2] (KP-MDR (Klebsiella pneumoniae ATCC 700603), evolved line 5), 2.408 log10; in assay [2] (KP-MDR (Klebsiella pneumoniae ATCC 700603), evolved line 6) it was 2.408 log10; in assay [2] (KP-MDR (Klebsiella pneumoniae ATCC 700603), evolved line 9) it was 2.408 log10; in assay [2] (KP-MDR (Klebsiella pneumoniae ATCC 700603), evolved line 10) it was 2.408 log10; in assay [2] (KP-SEN (Klebsiella pneumoniae ATCC 10031), evolved line 1), 2.408 log10. In addition, the “Relative MIC (log10)” value is 2.709 log10 in assay [2] (setting [3]); 2.709 log10 in assay [2] (KP-SEN (Klebsiella pneumoniae ATCC 10031), evolved line 3); 2.709 log10 in assay [2] (KP-SEN (Klebsiella pneumoniae ATCC 10031), evolved line 9); 2.709 log10 in assay [2] (KP-SEN, Klebsiella pneumoniae ATCC 10031, evolved line 5).

`C[C@@H]1CN2c3c(cc4c(N5C(=O)OC[C@@H]5C)noc4c3F)CC3(C(=O)NC(=O)NC3=O)[C@H]2[C@H](C)O1` [Zoliflodacin]: the “Relative MIC” value is reported as 1024 in assay [2] (KP-SEN (ATCC 10031), evolved line 1, evolved vs ancestor); 1024 in assay [2] (KP-SEN (ATCC 10031), evolved line 2, evolved vs ancestor); 512 in assay [2] (KP-SEN (ATCC 10031), evolved line 3, evolved vs ancestor); 1024 in assay [2] (KP-SEN (ATCC 10031), evolved line 4, evolved vs ancestor); 1024 in assay [2] (KP-SEN (ATCC 10031), evolved line 5, evolved vs ancestor); 1024 in assay [2] (KP-SEN (ATCC 10031), evolved line 6, evolved vs ancestor). The “Relative MIC” value in assay [2] (KP-SEN (ATCC 10031), evolved line 7, evolved vs ancestor) is on record as 1024; in assay [2] (KP-SEN (ATCC 10031), evolved line 8, evolved vs ancestor) it was 1024; in assay [2] (KP-SEN (ATCC 10031), evolved line 10, evolved vs ancestor) it was 1024; in assay [2] (Klebsiella pneumoniae ATCC 10031 (KP-SEN), evolved line 1), 1024; in assay [2] (Klebsiella pneumoniae ATCC 10031 (KP-SEN), evolved line 2) it was 1024; in assay [2] (Klebsiella pneumoniae ATCC 10031 (KP-SEN), evolved line 3), 512. For the same molecule, the “Relative MIC” value turned out to be 1024 in assay [2] (Klebsiella pneumoniae ATCC 10031 (KP-SEN), evolved line 4); 1024 in assay [2] (Klebsiella pneumoniae ATCC 10031 (KP-SEN), evolved line 5); 1024 in assay [2] (Klebsiella pneumoniae ATCC 10031 (KP-SEN), evolved line 6); 1024 in assay [2] (Klebsiella pneumoniae ATCC 10031 (KP-SEN), evolved line 7); 1024 in assay [2] (Klebsiella pneumoniae ATCC 10031 (KP-SEN), evolved line 8); 1024 in assay [2] (Klebsiella pneumoniae ATCC 10031 (KP-SEN), evolved line 10). For the same molecule, the “Relative MIC (log10)” value turned out to be 3.0103 log10 in assay [2] (setting [3]); 3.0103 log10 in assay [2] (KP-SEN (Klebsiella pneumoniae ATCC 10031), evolved line 4); 3.0103 log10 in assay [2] (KP-SEN (Klebsiella pneumoniae ATCC 10031), evolved line 6); 3.0103 log10 in assay [2] (KP-SEN (Klebsiella pneumoniae ATCC 10031), evolved line 8); 3.0103 log10 in assay [2] (KP-SEN (Klebsiella pneumoniae ATCC 10031), evolved line 10).

For POL7306, the “Relative MIC” value is 1 in assay [2] (ALE, Klebsiella pneumoniae ATCC 10031 (KP-SEN), evolved line 1); 32 in assay [2] (ALE, Klebsiella pneumoniae ATCC 10031 (KP-SEN), evolved line 4); 1 in assay [2] (ALE, Klebsiella pneumoniae ATCC 10031 (KP-SEN), evolved line 7); 32 in assay [2] (ALE, Klebsiella pneumoniae ATCC 10031 (KP-SEN), evolved line 8); 64 in assay [2] (ALE, Klebsiella pneumoniae ATCC 10031 (KP-SEN), evolved line 10); 16 in assay [2] (ALE, Klebsiella pneumoniae ATCC 700603 (KP-MDR), evolved line 1). Also, the “Relative MIC” value came to 256 in assay [2] (ALE, Klebsiella pneumoniae ATCC 700603 (KP-MDR), evolved line 2); 256 in assay [2] (ALE, Klebsiella pneumoniae ATCC 700603 (KP-MDR), evolved line 3); 256 in assay [2] (ALE, Klebsiella pneumoniae ATCC 700603 (KP-MDR), evolved line 4); 256 in assay [2] (ALE, Klebsiella pneumoniae ATCC 700603 (KP-MDR), evolved line 5); 256 in assay [2] (ALE, Klebsiella pneumoniae ATCC 700603 (KP-MDR), evolved line 6); 256 in assay [2] (ALE, Klebsiella pneumoniae ATCC 700603 (KP-MDR), evolved line 8). In assay [2] (ALE, Klebsiella pneumoniae ATCC 700603 (KP-MDR), evolved line 10), the “Relative MIC” value came to 16.

For Tridecaptin M152-P3, the MIC of evolved line in assay [2] (evolved line 2 of the given antibiotic) stood at 32 µg/mL; in assay [2] (evolved line 4 of the given antibiotic) it was 8 µg/mL; in assay [2] (evolved line 5 of the given antibiotic), 64 µg/mL; in assay [2] (evolved line 6 of the given antibiotic), 64 µg/mL; in assay [2] (evolved line 7 of the given antibiotic) it was 64 µg/mL; in assay [2] (evolved line 8 of the given antibiotic) it was 4 µg/mL.
